Source: PubChem BioAssay AID248 (DTP/NCI, 2004)
“And” between values parts separate entries of the source, which are not always exact repeats. Equal entries are not always repeated. Toxic doses and inconclusive results are not listed. No stated cut-off is given here; in the data, active means T/C of 150% or more; inactive means T/C below 125%.

System: L1210 leukemia ip in BDF1 mice, survival T/C
Experiment: NCI In Vivo Anticancer Drug Screen. Data for tumor model L1210 Leukemia (intraperitoneal) in B6D2F1 (BDF1) mice
Conditions: endpoint: mean survival time, higher = longer survival
Procedure, shortened: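 In this screen, tumor-bearing mice given compound are compared to those given vehicle, and their survival values are reported as a treated-to-control quotient.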

[1] = dose: 100.0 mg/kg/injection, schedule: Q01DX009 (ip), vehicle: saline with Tween-80
[2] = dose: 75.0 mg/kg/injection, schedule: Q01DX001 (ip), vehicle: saline
[3] = dose: 150.0 mg/kg/injection, schedule: Q01DX001 (ip), vehicle: saline
[4] = dose: 100.0 mg/kg/injection, schedule: Q01DX001 (ip), vehicle: saline
[5] = dose: 200.0 mg/kg/injection, schedule: Q01DX001 (ip), vehicle: saline
[6] = dose: 100.0 mg/kg/injection, schedule: Q04DX002 (ip), vehicle: saline
[7] = dose: 200.0 mg/kg/injection, schedule: Q04DX002 (ip), vehicle: saline
[8] = dose: 400.0 mg/kg/injection, schedule: Q01DX001 (ip), vehicle: saline
[9] = dose: 100.0 mg/kg/injection, schedule: Q01DX001 (ip), vehicle: Klucel (hydroxypropylcellulose) (HPC)
[10] = dose: 200.0 mg/kg/injection, schedule: Q01DX001 (ip), vehicle: Klucel (hydroxypropylcellulose) (HPC)
[11] = dose: 400.0 mg/kg/injection, schedule: Q01DX001 (ip), vehicle: Klucel (hydroxypropylcellulose) (HPC)
[12] = dose: 50.0 mg/kg/injection, schedule: Q01DX001 (ip), vehicle: carboxymethylcellulose (CMC)
[13] = dose: 100.0 mg/kg/injection, schedule: Q01DX001 (ip), vehicle: carboxymethylcellulose (CMC)
[14] = dose: 200.0 mg/kg/injection, schedule: Q01DX001 (ip), vehicle: carboxymethylcellulose (CMC)
[15] = dose: 400.0 mg/kg/injection, schedule: Q01DX001 (ip), vehicle: carboxymethylcellulose (CMC)
[16] = dose: 100.0 mg/kg/injection, schedule: Q04DX003 (ip), vehicle: saline

Measured: T/C

CN(C(=O)c1ccc(Cl)c(Cl)c1)C(c1ccco1)P(=O)(c1ccccc1)c1ccccc1 (stereo not given)
inactive: [1] 90 % of control | dose: 100.0 mg/kg/injection, schedule: Q04DX002 (ip), vehicle: saline with Tween-80 96 % of control | dose: 200.0 mg/kg/injection, schedule: Q01DX009 (ip), vehicle: saline with Tween-80 103 % of control | dose: 200.0 mg/kg/injection, schedule: Q04DX002 (ip), vehicle: saline with Tween-80 90 % of control | dose: 400.0 mg/kg/injection, schedule: Q01DX009 (ip), vehicle: saline with Tween-80 93 % of control | dose: 400.0 mg/kg/injection, schedule: Q04DX002 (ip), vehicle: saline with Tween-80 93 % of control

CCN(CC)CCCC(C)Nc1cc(N)nc2nc(-c3ccc(Br)cc3)cnc12 (stereo not given)
inactive: [2] 106 % of control | [3] 101 % of control

CN(C)c1ccc(NC(=O)/C=C/C(=O)O)cc1
inactive: dose: 100.0 mg/kg/injection, schedule: Q04DX003 (ip), vehicle: saline with Tween-80 108 % of control | dose: 200.0 mg/kg/injection, schedule: Q04DX003 (ip), vehicle: saline with Tween-80 101 % of control | dose: 400.0 mg/kg/injection, schedule: Q04DX003 (ip), vehicle: saline with Tween-80 101 % of control

O=C(CC(=O)c1ccccc1)Nc1ccccn1
inactive: [4] 101 % of control | [5] 98 % of control

NCCSC1CCCCC1
inactive: [6] 110 % of control | [7] 94 % of control

COc1cc(-c2cc(OC)c(N=N/C(=N/Nc3ccc([N+](=O)[O-])cc3)c3ccc([N+](=O)[O-])cc3)cc2Cl)c(Cl)cc1N=N/C(=N\Nc1ccc([N+](=O)[O-])cc1)c1ccc([N+](=O)[O-])cc1
inactive: dose: 50.0 mg/kg/injection, schedule: Q01DX001 (ip), vehicle: saline 103 % of control | [4] 94 % of control | [5] 103 % of control | [8] 94 % of control

COc1ccccc1C(Cc1ccc(N2C(N)=NC(N)=NC2(C)C)cc1)C(=O)Nc1ccc(S(=O)(=O)F)cc1 (stereo not given)
inactive: [9] 101 % of control | [10] 101 % of control | [11] 99 % of control

O=C(NCCF)NC1CS(=O)(=O)CS(=O)(=O)C1
inactive: dose: 9.5 mg/kg/injection, schedule: Q01DX001 (ip), vehicle: other 100 % of control | dose: 19.0 mg/kg/injection, schedule: Q01DX001 (ip), vehicle: other 105 % of control | dose: 38.0 mg/kg/injection, schedule: Q01DX001 (ip), vehicle: other 96 % of control

C=C1N(C)c2ccccc2C1(C)C
inactive: dose: 0.5 mg/kg/injection, schedule: Q01DX015 (ip), vehicle: carboxymethylcellulose (CMC) 97 % of control | dose: 1.0 mg/kg/injection, schedule: Q01DX015 (ip), vehicle: carboxymethylcellulose (CMC) 101 % of control | dose: 2.0 mg/kg/injection, schedule: Q01DX015 (ip), vehicle: carboxymethylcellulose (CMC) 104 % of control | dose: 4.0 mg/kg/injection, schedule: Q01DX015 (ip), vehicle: carboxymethylcellulose (CMC) 97 % of control and 123 % of control | dose: 8.0 mg/kg/injection, schedule: Q01DX015 (ip), vehicle: carboxymethylcellulose (CMC) 123 % of control

CC12CCC3c4ccc(O)c(N)c4CCC3C1CCC2=O (stereo not given)
inactive: [9] 102 % of control | [10] 102 % of control | [11] 101 % of control

Nc1nc2[nH]ncc2c(=O)[nH]1
inactive: [12] 104 % of control | [13] 107 % of control | [14] 93 % of control | [15] 96 % of control

O=[N+]([O-])c1ccc(OCc2ccc(S(=O)(=O)F)cc2)c(Cl)c1
inactive: dose: 100.0 mg/kg/injection, schedule: Q04DX003 (ip), vehicle: other 97 % of control | dose: 200.0 mg/kg/injection, schedule: Q04DX003 (ip), vehicle: other 97 % of control | dose: 400.0 mg/kg/injection, schedule: Q04DX003 (ip), vehicle: other 92 % of control

C[NH-].C[NH-].C[NH-].[Cl][Rh]([Cl])[Cl]
inactive: dose: 25.0 mg/kg/injection, schedule: Q04DX003 (ip), vehicle: saline 96 % of control | dose: 50.0 mg/kg/injection, schedule: Q04DX003 (ip), vehicle: saline 96 % of control | [16] 96 % of control

CC(C)(C)C1CCC(O)C(Cl)C1 (stereo not given)
inactive: dose: 100.0 mg/kg/injection, schedule: Q01DX009 (ip), vehicle: saline 100 % of control | dose: 200.0 mg/kg/injection, schedule: Q01DX009 (ip), vehicle: saline 98 % of control

COc1cc(OC)c(-c2nc3cc(Cl)ccc3c(=O)o2)cc1OC
inactive: dose: 87.5 mg/kg/injection, schedule: Q01DX009 (ip), vehicle: Klucel (hydroxypropylcellulose) (HPC) 114 % of control | dose: 175.0 mg/kg/injection, schedule: Q01DX009 (ip), vehicle: Klucel (hydroxypropylcellulose) (HPC) 98 % of control | dose: 350.0 mg/kg/injection, schedule: Q01DX009 (ip), vehicle: Klucel (hydroxypropylcellulose) (HPC) 93 % of control

CCC1(c2ccccc2)C2C(=O)NC(=O)C1C(=O)NC2=O (stereo not given)
inactive: [4] 98 % of control | [5] 95 % of control | [8] 101 % of control

O=[As](O)(c1cccc(Cl)c1)c1cccc(Cl)c1
inactive: [2] 105 % of control

CC(C)CNS(=O)(=O)c1ncnc2nc[nH]c12
inactive: dose: 6.0 mg/kg/injection, schedule: Q01DX Z (ip), vehicle: carboxymethylcellulose (CMC) 103 % of control | dose: 12.0 mg/kg/injection, schedule: Q01DX Z (ip), vehicle: carboxymethylcellulose (CMC) 100 % of control | dose: 25.0 mg/kg/injection, schedule: Q01DX Z (ip), vehicle: carboxymethylcellulose (CMC) 106 % of control | dose: 50.0 mg/kg/injection, schedule: Q01DX Z (ip), vehicle: carboxymethylcellulose (CMC) 92 % of control

CSC(=O)SC
inactive: [1] 101 % of control

CCCC[n+]1cc(C(N)=O)cc2ccccc21
inactive: [2] 96 % of control | [3] 95 % of control

O=S(=O)(Nc1ncccn1)c1ccc(N=NSC2=NC=NC3=NC=NC32)cc1 (stereo not given)
inactive: dose: 100.0 mg/kg/injection, schedule: Q01DX001 (ip), vehicle: other 104 % of control | dose: 200.0 mg/kg/injection, schedule: Q01DX001 (ip), vehicle: other 124 % of control | dose: 400.0 mg/kg/injection, schedule: Q01DX001 (ip), vehicle: other 106 % of control

O=C(NCCCl)NC1CCCCC1
inactive: [9] 88 % of control | [10] 89 % of control | [11] 100 % of control

CC(=O)Nc1ccc(/C=N\Nc2ccccn2)cc1
inactive: [4] 89 % of control | [5] 100 % of control | [8] 93 % of control

O=C1c2ccccc2-c2cc(Br)c([N+](=O)[O-])cc21
inactive: [12] 93 % of control | [13] 96 % of control | [14] 86 % of control | [15] 88 % of control

CCCCCCCc1nc2nn[nH]c(=O)c2[nH]1
inactive: dose: 100.0 mg/kg/injection, schedule: Q01DX001 (ip), vehicle: saline with Tween-80 94 % of control | dose: 200.0 mg/kg/injection, schedule: Q01DX001 (ip), vehicle: saline with Tween-80 100 % of control | dose: 400.0 mg/kg/injection, schedule: Q01DX001 (ip), vehicle: saline with Tween-80 90 % of control

O=C1CSC(=S)N1c1ccc2c(c1)OCO2
inactive: [16] 94 % of control | dose: 200.0 mg/kg/injection, schedule: Q04DX003 (ip), vehicle: saline 90 % of control | dose: 400.0 mg/kg/injection, schedule: Q04DX003 (ip), vehicle: saline 95 % of control

O=C(Nc1ccccc1F)N(CCO)C1CCCCC1
inactive: dose: 100.0 mg/kg/injection, schedule: Q01DX009 (ip), vehicle: Klucel (hydroxypropylcellulose) (HPC) 101 % of control | dose: 200.0 mg/kg/injection, schedule: Q01DX009 (ip), vehicle: Klucel (hydroxypropylcellulose) (HPC) 106 % of control | dose: 400.0 mg/kg/injection, schedule: Q01DX009 (ip), vehicle: Klucel (hydroxypropylcellulose) (HPC) 101 % of control

O=C(O)CNc1ccc(S(=O)(=O)c2ccc(NCC(=O)O)cc2)cc1
inactive: [4] 102 % of control | [5] 102 % of control | [8] 98 % of control

CC(=O)CC(C)(C)S(=O)(=O)O
inactive: [4] 100 % of control | [5] 100 % of control | [8] 100 % of control

CC(=O)OC1CC(n2cc(C)c(=O)[nH]c2=O)OC1COP(=O)(N1CC1(C)C)N1CC1(C)C (stereo not given)
inactive: dose: 50.0 mg/kg/injection, schedule: Q04DX002 (ip), vehicle: saline 110 % of control | [6] 112 % of control | [7] 123 % of control
